Results: patent US9365549B2, “Hepatitis C virus inhibitors” (THERAVANCE BIOPHARMA R&D IP, LLC, priority 2012, dated 2016)

How the values were obtained:
[1] = system: HCV genotype 1a replicon cell line; assay: HCV Genotype 1a Replicon Assay; format: cell-based; settings: Hepatitis C virus, Huh7.5 cell background, NS3-specific protease activity in lysates, 48 or 72 hours, read-out: pEC50 Genotype 1a (converted)
Method: Assay 2: HCV Genotype 1a Replicon Assay
The HCV genotype 1a replicon cell line was obtained from Apath LLC (APC89; Huh7.5 cell background). This subgenomic replicon contains the N-terminus of the HCV core protein fused to the neomycin-resistance selectable marker. The EMCV IRES lies downstream and drives expression of the non-structural proteins NS3-NS5B. Compound potencies were determined using the NS3-specific protease activity in lysates as a measurement of compound inhibition of replicon levels.
(§1) Cells were grown at 37° C. in a 5% CO2 humidified incubator in DMEM (Invitrogen) with 10% FBS (HyClone), 1×NEAA (Invitrogen), 1× Pen-Strep (Invitrogen), and 850 μg/mL G418 (Invitrogen). On day 1 of the assay, cells were plated at 15,000 cells/well in black 96-well tissue culture plates (Costar) in 200 μL media lacking G418. […] Compounds were initially diluted in DMSO and then diluted another 200× in media to bring the final DMSO concentration down to 0.5%. The cells were incubated with test compounds for 48 or 72 hours. At the end of the incubation period, media and compound were removed from the plates.
To determine the NS3-specific protease activity in lysates, the cells were lysed at room temperature in 50 μL/well of 50 mM Hepes pH 7.5, 150 mM NaCl, 15% Glycerol, 0.15% Triton X-100, 10 mM DTT for 20 minutes with shaking. 50 μL of an NS3/4a protease-specific FRET substrate (Anaspec RET S1 Cat#22991) was then added to the wells at a final concentration of 15 μM. The plates were incubated at 37° C. for 20 minutes, which corresponds to a timepoint at which the protease activity is still in the linear phase. Protease activity was determined by measuring fluorescence (Excitation: 340 nm; Emission: 509 nm).
To analyze the data, the fluorescence was plotted vs. the compound concentration, and EC50 values were determined from a 4-parameter robust fit model using GraphPad Prism software.

[2] = system: HCV genotype 1b replicon cell line; assay: HCV Genotype 1b Replicon Assay; format: cell-based; settings: Hepatitis C virus, Huh-7, Huh7 cell background, luciferase activity readout, 48 hours
Excerpt: Assay 1: HCV Genotype 1b Replicon Assay
The HCV genotype 1b replicon cell line was obtained from Apath LLC (Brooklyn, N.Y.) (APC144; Huh7 cell background). This subgenomic replicon contains the N-terminus of the HCV core protein fused to the neomycin-resistance selectable marker. The EMCV IRES lies downstream and drives expression of humanized Renilla luciferase fused to the non-structural proteins NS3-NS5B. This cell line was used to determine compound potency using the luciferase activity readout as a measurement of compound inhibition of replicon levels.
as §1, with “500” for “850”, “10,000” for “15,000”, “white” for “black”, “48” for “48 or 72”, “plates and the luciferase activity was determined using Promega Renilla-Glo reagents.” for “plates.”
To analyze the data, the luciferase activity was plotted vs. the compound concentration, and EC50 values were determined from a 4-parameter robust fit model with the GraphPad Prism software package (GraphPad Software, Inc., San Diego, Calif.). Results are expressed as the negative decadic logarithm of the EC50 value, pEC50.

In the case of `COC(=O)N[C@H](C(=O)N1CC(C2CC2)=C[C@H]1c1nc(-c2ccc(-c3cc(Cl)c(NC(=O)c4ccc(N5CCN(C(=O)[C@H]6CC6(C)C)C[C@H]5C)nc4)cc3OC(F)(F)F)cc2)c[nH]1)C(C)C` [Example 4, ((S)-1-{(S)-2-[4-(5′-Chloro-4′-{[6-((R)-4-(S)-2,2-dimethylcyclopropanecarbonyl-2-methyl-piperazin-1-yl)-pyridine-3-carbonyl]-amino}-2′-trifluoromethoxy-biphenyl-4-yl)-1H-imidazol-2-yl]-4-cyclopropyl-2,5-dihydro-pyrrole-1-carbonyl}-2-methyl-propyl)-carbamic acid methyl ester], the EC50 [1] is reported as less than 100 pM and the EC50 [2] is reported as less than 100 pM.
Compound `COC(=O)N[C@H](C(=O)N1C[Si](C)(C)C[C@H]1c1nc(-c2ccc(-c3cc(Cl)c(NC(=O)c4ccc(N5CCN(C(=O)[C@H]6CC6(C)C)C[C@H]5C)nc4)cc3OC(F)(F)F)cc2)c[nH]1)C(C)C` [Example 5, ((S)-1-{(R)-5-[4-(5′-Chloro-4′-{[6-((R)-4-(S)-2,2-dimethylcyclopropanecarbonyl-2-methyl-piperazin-1-yl)-pyridine-3-carbonyl]-amino}-2′-trifluoromethoxy-biphenyl-4-yl)-1H-imidazol-2-yl]-3,3-dimethyl-[1,3]azasilolidine-1-carbonyl}-2-methyl-propyl)-carbamic acid methyl ester] has an EC50 [1] of less than 100 pM and an EC50 [2] of less than 100 pM.
For `COC(=O)N[C@H](C(=O)N1C[C@@H](C)C[C@H]1c1nc2c(ccc3cc(-c4cc(F)c(NC(=O)c5ccc(N6CCN(C(=O)C(C)(C)C)C[C@H]6C)nc5)cc4OC(F)(F)F)ccc32)[nH]1)C1CCOCC1` [Example 5-2], the EC50 [1] was less than 100 pM and the EC50 [2] was less than 100 pM.
For `COC(=O)N[C@H](C(=O)N1C[C@@H](C)C[C@H]1c1nc2c(ccc3cc(-c4cc(F)c(NC(=O)c5ccc(N6CCN(C(=O)C(C)(C)CO)C[C@H]6C)nc5)cc4OC(F)(F)F)ccc32)[nH]1)C1CCOCC1` [Example 5-3], the EC50 [1] was less than 100 pM and the EC50 [2] was less than 100 pM.
For `COC(=O)N[C@H](C(=O)N1C[C@@H](C)C[C@H]1c1nc2c(ccc3cc(-c4cc(Cl)c(C(=O)Nc5ccc(N6CCN(C(=O)C(C)(C)C)C[C@H]6C)nc5)cc4OC(F)(F)F)ccc32)[nH]1)C1CCOCC1` [Example 5-6], the EC50 [1] was less than 100 pM and the EC50 [2] was less than 100 pM.
`COC(=O)N[C@H](C(=O)N1C[C@@H](C)C[C@H]1c1nc2c(ccc3cc(-c4cc(Cl)c(C(=O)Nc5ccc(N6CCN(C(=O)C(C)(C)CO)C[C@H]6C)nc5)cc4OC(F)(F)F)ccc32)[nH]1)C1CCOCC1` [Example 5-7] gave an EC50 [1] of less than 100 pM and an EC50 [2] of less than 100 pM.
Compound `COC(=O)N[C@H](C(=O)N1[C@@H]2C[C@@H]2CC[C@H]1c1nc(-c2ccc(-c3cc(Cl)c(NC(=O)c4ccc(N5CCN(C(=O)C(C)(C)C)C[C@H]5C)nc4)cc3OC(F)(F)F)cc2)c[nH]1)C(C)C` [Example 5-10] has an EC50 [1] of less than 100 pM and an EC50 [2] of less than 100 pM.
`COC(=O)N[C@H](C(=O)N1C[Si](C)(C)C[C@H]1c1nc(-c2ccc(-c3ccc(NC(=O)c4ccc(N5CCN(C(=O)C(C)(C)C)C[C@H]5C)nc4)cc3OC(F)(F)F)cc2)c[nH]1)C(C)C` [Example 7, [(S)-1-((R)-5-{4-[4′-({6-[(R)-4-(2,2-dimethyl-propionyl)-2-methyl-piperazin-1-yl]-pyridine-3-carbonyl}-amino)-2′-trifluoromethoxy-biphenyl-4-yl]-1H-imidazol-2-yl}-3,3-dimethyl-[1,3]azasilolidine-1-carbonyl)-2-methyl-propyl]-carbamic acid methyl ester] was tested, and the EC50 [1] was 100 to 1000 pM and the EC50 [2] was less than 100 pM.
Work on `COC(=O)N[C@H](C(=O)N1C[C@@H](C)C[C@H]1c1nc2c(ccc3cc(-c4cc(Cl)c(NC(=O)c5ccc(N6CCN(C(=O)C(C)(C)C)C[C@H]6C)nc5)cc4OC(F)(F)F)ccc32)[nH]1)C(C)C` [Example 8, [(S)-1-((2S,4S)-2-{7-[5-Chloro-4-({6-[(R)-4-(2,2-dimethyl-propionyl)-2-methyl-piperazin-1-yl]-pyridine-3-carbonyl}-amino)-2-trifluoromethoxy-phenyl]-3H-naphtho[1,2-d]imidazol-2-yl}-4-methyl-pyrrolidine-1-carbonyl)-2-methyl-propyl]-carbamic acid methyl ester] yielded an EC50 [1] of less than 100 pM and an EC50 [2] of less than 100 pM.
`COC(=O)N[C@H](C(=O)N1C[C@@H](C)C[C@H]1c1nc2c(ccc3cc(-c4cc(Cl)c(NC(=O)c5ccc(N6CCN(C(=O)C7CC7)C[C@H]6C)nc5)cc4OC(F)(F)F)ccc32)[nH]1)C(C)C` [Example 9, ((S)-1-{(2S,4S)-2-[7-(5-Chloro-4-{[6-((R)-4-cyclopropanecarbonyl-2-methyl-piperazin-1-yl)-pyridine-3-carbonyl]-amino}-2-trifluoromethoxy-phenyl)-3H-naphtho[1,2-d]imidazol-2-yl]-4-methyl-pyrrolidine-1-carbonyl}-2-methyl-propyl)-carbamic acid methyl ester] showed an EC50 [1] of less than 100 pM and an EC50 [2] of less than 100 pM.
For `COC(=O)N[C@H](C(=O)N1C[C@@H](C)C[C@H]1c1nc2c(ccc3cc(-c4cc(Cl)c(NC(=O)c5ccc(N6CCN(C(=O)[C@H]7CC7(C)C)C[C@H]6C)nc5)cc4OC(F)(F)F)ccc32)[nH]1)C(C)C` [Example 10, [(S)-1-((2S,4S)-2-{7-[5-Chloro-4-({6-[(R)-4-((S)-2,2-dimethylcyclopropanecarbonyl)-2-methyl-piperazin-1-yl]-pyridine-3-carbonyl}-amino)-2-trifluoromethoxy-phenyl]-3H-naphtho[1,2-d]imidazol-2-yl}-4-methyl-pyrrolidine-1-carbonyl)-2-methyl-propyl]-carbamic acid methyl ester], the EC50 [1] was less than 100 pM and the EC50 [2] was less than 100 pM.
`COC(=O)N[C@H](C(=O)N1C[C@@H](C)C[C@H]1c1nc2c(ccc3cc(-c4ccc(C(=O)Nc5ccc(N6CCN(C(=O)C(C)(C)C)C[C@H]6C)nc5)cc4OC(F)(F)F)ccc32)[nH]1)C(C)C` [Example 13, ((S)-1-{(2S,4S)-2-[7-(4-{6-[(R)-4-(2,2-Dimethyl-propionyl)-2-methyl-piperazin-1-yl]-pyridin-3-ylcarbamoyl}-2-trifluoromethoxy-phenyl)-3H-naphth[1,2-d]imidazol-2-yl]-4-methyl-pyrrolidine-1-carbonyl}-2-methyl-propyl)-carbamic acid methyl ester] gave an EC50 [1] of less than 100 pM and an EC50 [2] of less than 100 pM.
Work on `COC(=O)N[C@H](C(=O)N1C[C@@H](C)C[C@H]1c1nc2c(ccc3cc(-c4cc(Cl)c(NC(=O)c5ccc(N6CCN(C(=O)C(C)(C)C)C[C@H]6C)nc5)cc4OC(F)(F)F)ccc32)[nH]1)C1CCOCC1` [Example 14, [(S)-2-((2S,4S)-2-{7-[4-({6-[(R)-4-(2,2-Dimethyl-propionyl)-2-methyl-piperazin-1-yl]-pyridine-3-carbonyl}-amino)-5-chloro-2-trifluoromethoxy-phenyl]-3H-naphtho[1,2-d]imidazol-2-yl}-4-methyl-pyrrolidin-1-yl)-2-oxo-1-(tetrahydropyran-4-yl)-ethyl]-carbamic acid methyl ester] yielded an EC50 [1] of less than 100 pM and an EC50 [2] of less than 100 pM.
With `COC(=O)N[C@H](C(=O)N1C[C@@H](C)C[C@H]1c1nc2c(ccc3cc(-c4cc(Cl)c(NC(=O)c5ccc(N6CCN(C(=O)C(C)(C)CO)C[C@H]6C)nc5)cc4OC(F)(F)F)ccc32)[nH]1)C1CCOCC1` [Example 15, [(S)-2-((2S,4S)-2-{7-[4-({6-[(R)-4-(3-Hydroxy-2,2-dimethyl-propionyl)-2-methyl-piperazin-1-yl]-pyridine-3-carbonyl}-amino)-5-chloro-2-trifluoromethoxy-phenyl]-3H-naphtho[1,2-d]imidazol-2-yl}-4-methyl-pyrrolidin-1-yl)-2-oxo-1-(tetrahydropyran-4-yl)-ethyl]-carbamic acid methyl ester] the EC50 [1] was less than 100 pM and the EC50 [2] was less than 100 pM.
